Strand notation (5' to 3'): a small letter for the sugar, then the base; units joined by * are phosphorothioate-linked, units joined directly phosphodiester-linked; [ ] holds rarer units or linkages, { } end groups; capitals alone tell only the bases. l = locked nucleic acid (LNA); [5mC] = 5-methylcytosine; d = 2'-deoxy (DNA)
Columns and labels:
[1] = system: mouse androgen receptor mRNA; test: In vivo knock-down of AR mRNA expression in mouse liver (QPCR); settings: nude mice, 100 mg/kg i.v. q3dx4, liver 24 h after last dosing, normalised to mouse GAPDH, relative to saline treated animals
Protocol: Nude mice were dosed i.v. q3dx4 with 100 mg/kg oligonucleotide (group size of 5 mice). The antisense oligonucleotides (SEQ ID:48, SEQ ID:51, SEQ ID:58, SEQ ID:63, SEQ ID:77) were dissolved in phosphate buffered saline. Animals were sacrificed 24 h after last dosing and liver tissue was sampled and stored in RNA later until RNA extraction and QPCR analysis. Total RNA was extracted and AR mRNA expression in liver samples was measured by QPCR as described in Example 7 using a mouse AR QPCR assay (cat. Mm01238475_m1, Applied Biosystems). Results were normalised to mouse GAPDH (cat. no. 4352339E, Applied Biosystems) and knock-own was quantitated relative to saline treated controls. The data in Table 4 are presented as percentage down-regulation relative to saline treated animals.

[2] = system: LNCaP prostate cancer cells; test: Measurement of proliferating viable cells (MTS assay), LNCaP; type: cell-based, human; settings: 4 nM and 16 nM, time course post-transfection (FIG. 14)
Protocol: (§1) LNCaP prostate cancer and A549 lung cancer cells were seeded to a density of 150,000 cells per well in a 6-well plate the day prior to transfection. A549 cells were cultured in DMEM (Sigma)+10% fetal bovine serum (FBS)+2 mM Glutamax I+gentamicin (25 μg/ml) whereas LNCaP cells were cultured in RPMI 1640 Medium (Sigma)+10% fetal bovine serum (FBS)+2 mM Glutamax I+gentamicin (25 μg/ml). On the following day, medium was removed followed by addition of 1.2 ml OptiMEM containing 5 μg/ml Lipofectamine2000 (Invitrogen). Cells were incubated for 7 min before adding 0.3 ml oligonucleotides diluted in OptiMEM. The final oligonucleotide concentrations were 4 nM and 16 nM. After 4 hours of treatment, media was removed and cells were trypsinized and seeded to a density of 5000 cells per well in a clear 96 well plate (Scientific Orange no. 1472030100) in 100 μl media. Viable cells were measured at the times indicated by adding 10 μl the tetrazolium compound [3-(4,5-[…])-5-(3-carboxymethoxyphenyl)-2-(4-sulfophenyl)-2H-tetrazolium, inner salt; MTS] and an electron coupling reagent (phenazine ethosulfate; PES) (CellTiter 96® AQueous One Solution Cell Proliferation Assay, Promega). Viable cells were measured at 490 nm in a Powerwave (Biotek Instruments). The OD490 nm measurements were plotted against time/h. (See FIG. 13 and FIG. 14).

A549 lung cancer cells = test: Measurement of proliferating viable cells (MTS assay), A549; type: cell-based, human; settings: 4 nM and 16 nM, time course post-transfection (FIG. 13)
Protocol: as §1

[3] = system: Caspase 3/7 activity in LNCaP cells; test: Caspase 3/7 activity (Caspase-Glo 3/7) in LNCaP cells; type: cell-based, human; settings: 4 nM and 16 nM; 14 h, 48 h and 72 h (FIG. 15)
Protocol: (§2) LNCaP prostate cancer cells and A549 lung cancer cells were seeded to a density of 150,000 cells per well in a 6-well plate the day prior to transfection. A549 cells were cultured in DMEM (Sigma)+10% fetal bovine serum (FBS)+2 mM Glutamax I+gentamicin (25 μg/ml) whereas LNCaP cells were cultured in RPMI 1640 Medium (Sigma)+10% fetal bovine serum CUBS)+2 mM Glutamax I+gentamicin (25 μg/ml). The next day medium was removed followed by addition of 1.2 ml OptiMEM containing 5 μg/ml Lipofectamine2000 (Invitrogen). Cells were incubated for 7 min before adding 0.3 ml oligonucleotides diluted in OptiMEM. The final oligonucleotide concentrations were 4 nM and 16 nM. After 4 hours of treatment, media was removed and cells were trypsinized and seeded to a density of 5000 cells per well in a white 96 well plate (Nunc) in 100 μl media. Caspase 3/7 activity was measured at the times indicated by adding 100 μl Caspase-Glo 3/7 assay (Promega). Caspase 3/7 activity was measured using a luminometer. The caspase 3/7 activities were measured at three different time points 14 h, 48 h and 72 h (See FIG. 15 and FIG. 16).

[4] = system: Caspase 3/7 activity in A549 cells; test: Caspase 3/7 activity (Caspase-Glo 3/7) in A549 cells; type: cell-based, human; settings: 4 nM and 16 nM; 14 h, 48 h and 72 h (FIG. 16)
Protocol: as §2

[5] = system: human androgen receptor mRNA; test: AR mRNA knock-down in LNCaP, 24 h post-transfection, 0.5-16 nM (qPCR); type: cell-based; settings: 0.5, 1, 2, 4, 8 and 16 nM, 24 h post-transfection (FIG. 11)
Protocol: FIG. 11: AR mRNA in LNCaP, 24 h post-transfection
(§3) Oligonucleotides were evaluated for their potential to knock down androgen receptor mRNA expression at concentrations of 0.5, 1, 2, 4, 8 and 16 nM (see FIG. 11). LNCaP prostate cancer cells and A549 lung cancer cells were seeded to a density of 150,000 cells per well in a 6-well plate the day prior to transfection. A549 cells were cultured in DMEM (Sigma)+10% fetal bovine serum (FBS)+2 mM Glutamax I+gentamicin (25 μg/ml). LNCaP cells were cultured in RPMI 1640 Medium (Sigma)+10% fetal bovine serum (FBS)+2 mM Glutamax I+gentamicin ([…]). On the following day, medium was removed followed by addition of 1.2 ml OptiMEM containing 5 μg/ml Lipofectamine2000 (Invitrogen). Cells were incubated for 7 min before adding 0.3 ml oligonucleotides diluted in OptiMEM. The final oligonucleotide concentrations were 0.5, 1, 2, 4, 8 and 16 nM. Cells were washed and serum-containing media was added. After oligomer treatment cells were allowed to recover for 20 hours before they were harvested for RNA analysis. The procedure for RNA isolation, cDNA synthesis and qPCR were as described in Examples 5, 6 and 7.

[6] = system: human androgen receptor mRNA; test: AR mRNA knock-down in A549, 24 h post-transfection, 0.5-16 nM (qPCR); type: cell-based; settings: 0.5, 1, 2, 4, 8 and 16 nM, 24 h post-transfection (FIG. 12)
Protocol: FIG. 12: AR mRNA in A549, 24 h post-transfection
as §3

| Substance | Liver (% KD) of AR mRNA expression ([1]; listed as SEQ ID: 58, 100 mg/kg) | Growth of LNCaP prostate cancer cells (viable cells, OD490 nm vs time) [2] | Growth of A549 lung cancer cells (viable cells, OD490 nm vs time) (A549 lung cancer cells) | Caspase 3/7 activity in LNCaP cells [3] | Caspase 3/7 activity in A549 cells [4] | Knock down of AR mRNA expression in LNCaP prostate cancer cell line [5] | Knock down of AR mRNA expression in lung cancer cell line A549 [6] | Liver (% KD) of AR mRNA expression ([1]; listed as SEQ ID: 77, 100 mg/kg) |
| --- | --- | --- | --- | --- | --- | --- | --- | --- |
| 5′-AsCsCsasasgstststscststscsAsGsC-3′ (antisense lA*l[5mC]*l[5mC]*dA*dA*dG*dT*dT*dT*dC*dT*dT*dC*lA*lG*l[5mC]) [SEQ ID NO: 58, LNA gapmer antisense oligonucleotide] | 95.2 +/− 1.0% | inhibit growth | inhibit growth | induce caspase 3/7 activity | induce caspase 3/7 activity | potent in knocking down AR mRNA expression | potent in knocking down AR mRNA expression |  |
| 5′-CsCsCsasasgsgscsascstsgscsAsGsA-3′ (antisense l[5mC]*l[5mC]*l[5mC]*dA*dA*dG*dG*dC*dA*dC*dT*dG*dC*lA*lG*lA) [SEQ ID NO: 77, LNA gapmer antisense oligonucleotide] |  | inhibit growth | inhibit growth | induce caspase 3/7 activity | induce caspase 3/7 activity | potent in knocking down AR mRNA expression | potent in knocking down AR mRNA expression | 91.9 +/− 3.9% |

— patent US7737125B2, “LNA antagonists targeting the androgen receptor” (Enzon Pharamaceuticals, Inc., priority 2007, dated 2010)
